For 14 compounds, IC50 results are on record in patent US10626112B2, “Heterocyclic sulfonamide derivative and medicine comprising same” (EA PHARMA CO., LTD., priority 2014, dated 2020).

Test [1] has as its target T1, human TRPA1 (Homo sapiens (Human), UniProt O75762). The test is described as follows: Measurement of TRPA1 antagonist activity (2): as (1), different lot of human TRPA1 expression plasmid. The format is cell-based. To be noted: 293T cells transfected with human TRPA1, allylisothiocyanate 20 μM stimulation, calcium fluorescence, read-out: hTRPA1 IC50. In outline: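 HEK293T cells transiently transfected with human TRPA1 plasmid (different lot), loaded with Calcium4 dye in HBSS/20 mM HEPES pH 7.2. Test compound preincubated 10 min, then allylisothiocyanate added at 20 μM final and fluorescence change read for 5 min. IC50 from sigmoid fit of inhibition relative to AITC-alone and buffer controls.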

Test [2] has as its target T1, human TRPA1. The test is described as follows: Measurement of TRPA1 antagonist activity (1): intracellular calcium increase. It is filed as cell-based. To be noted: 293T cells transfected with human TRPA1 expression plasmid; allylisothiocyanate 20 μM stimulation; intracellular calcium fluorescence; read-out: hTRPA1 IC50. In short, it runs like this:
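Calcium-flux readout of TRPA1 block: compound given 10 min before 20 μM (final) allylisothiocyanate, fluorescence tracked 5 min. Cells were 293T transiently expressing human TRPA1, dye-loaded 1 hr in HBSS, 20 mM HEPES, pH 7.2. Inhibition scaled between agonist-only and buffer-only responses; IC50 by sigmoid fitting.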
In general terms: Calcium flux is commonly read through the fluorescence of an indicator in the cells.

T1 sequence (O75762 whole entry): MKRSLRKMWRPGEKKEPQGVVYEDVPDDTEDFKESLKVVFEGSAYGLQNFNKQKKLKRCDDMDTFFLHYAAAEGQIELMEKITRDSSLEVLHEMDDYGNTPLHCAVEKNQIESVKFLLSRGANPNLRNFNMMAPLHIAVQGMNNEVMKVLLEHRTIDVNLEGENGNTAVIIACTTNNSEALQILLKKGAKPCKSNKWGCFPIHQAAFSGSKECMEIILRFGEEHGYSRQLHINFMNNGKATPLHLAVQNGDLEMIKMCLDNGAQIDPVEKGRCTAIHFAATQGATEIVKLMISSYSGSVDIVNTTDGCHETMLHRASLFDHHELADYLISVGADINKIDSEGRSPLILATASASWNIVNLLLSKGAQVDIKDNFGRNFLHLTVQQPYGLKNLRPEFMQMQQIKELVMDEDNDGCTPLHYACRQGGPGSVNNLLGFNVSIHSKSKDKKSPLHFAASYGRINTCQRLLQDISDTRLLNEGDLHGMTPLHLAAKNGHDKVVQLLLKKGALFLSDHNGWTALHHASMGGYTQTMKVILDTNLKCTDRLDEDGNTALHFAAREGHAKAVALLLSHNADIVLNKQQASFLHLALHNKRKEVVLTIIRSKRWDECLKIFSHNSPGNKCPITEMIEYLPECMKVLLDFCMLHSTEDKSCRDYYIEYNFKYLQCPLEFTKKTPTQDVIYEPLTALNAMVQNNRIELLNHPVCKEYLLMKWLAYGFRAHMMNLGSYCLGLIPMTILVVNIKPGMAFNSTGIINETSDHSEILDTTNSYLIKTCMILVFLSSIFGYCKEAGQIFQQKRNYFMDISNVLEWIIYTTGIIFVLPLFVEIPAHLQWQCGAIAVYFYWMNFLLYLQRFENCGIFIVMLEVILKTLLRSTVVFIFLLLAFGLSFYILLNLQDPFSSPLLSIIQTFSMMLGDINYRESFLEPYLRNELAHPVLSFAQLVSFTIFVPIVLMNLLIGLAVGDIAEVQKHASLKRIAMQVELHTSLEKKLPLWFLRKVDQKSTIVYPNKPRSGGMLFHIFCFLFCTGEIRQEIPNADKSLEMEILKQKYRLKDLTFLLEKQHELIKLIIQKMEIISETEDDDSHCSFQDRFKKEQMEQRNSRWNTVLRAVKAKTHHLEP

As usually defined, the IC50 is the concentration that inhibits the measured activity by half. Consider `O=C(NCc1cncc(-c2ccc(C(F)(F)F)cn2)c1)[C@@H]1CCCN1S(=O)(=O)c1cc2ccccc2o1` [Example 87, (2S)-1-(benzofuran-2-ylsulfonyl)-N-[[5-[5-(trifluoromethyl)-2-pyridyl]-3-pyridyl]methyl]pyrrolidine-2-carboxamide], for which the results for the IC50 at human TRPA1 [1] and at human TRPA1 [2] were 52 nM and 26 nM, respectively.
With `O=C(NCc1cc(-c2ccc(C(F)(F)F)cn2)ccn1)[C@@H]1CCCN1S(=O)(=O)c1cc2ccccc2o1` [Example 179, (2S)-1-(benzofuran-2-ylsulfonyl)-N-[[4-[5-(trifluoromethyl)-2-pyridyl]-2-pyridyl]methyl]pyrrolidine-2-carboxamide], the concentration for half-maximal inhibition (IC50) stood at 4.1 nM on human TRPA1 [1] and 1.3 nM on human TRPA1 [2].
In the case of `C[C@H](NS(=O)(=O)c1cc2cc(F)ccc2o1)C(=O)NCc1cc(-c2ccc(C(F)(F)F)nc2)ncn1` [Example 191, (2S)-2-[(5-fluorobenzofuran-2-yl)sulfonylamino]-N-[[6-[6-(trifluoromethyl)-3-pyridyl]pyrimidin-4-yl]methyl]propanamide], the half-maximal inhibitory concentration (IC50) stood at 35 nM on human TRPA1 [1] and 12 nM on human TRPA1 [2].
Consider `CCN([C@@H](C)C(=O)NCc1cc(-c2ccc(C(F)(F)F)cn2)ccn1)S(=O)(=O)c1cc2cc(F)ccc2o1` [Example 416, (2S)-2-[ethyl-(5-fluorobenzofuran-2-yl)sulfonyl-amino]-N-[[4-[5-(trifluoromethyl)-2-pyridyl]-2-pyridyl]methyl]propanamide], for which the IC50 on human TRPA1 [1] was 4.2 nM.
On the same count and under the same terms, to `C=CCN([C@@H](C)C(=O)NCc1cc(-c2ccc(C(F)(F)F)cn2)ccn1)S(=O)(=O)c1cc2cc(F)ccc2o1` [Example 417, (2S)-2-[allyl-(5-fluorobenzofuran-2-yl)sulfonyl-amino]-N-[[4-[5-(trifluoromethyl)-2-pyridyl]-2-pyridyl]methyl]propanamide] belongs 14 nM; to `C#CCN([C@@H](C)C(=O)NCc1cc(-c2ccc(C(F)(F)F)cn2)ccn1)S(=O)(=O)c1cc2cc(F)ccc2o1` [Example 418, (2S)-2-[(5-fluorobenzofuran-2-yl)sulfonyl-prop-2-ynylamino]-N-[[4-[5-(trifluoromethyl)-2-pyridyl]-2-pyridyl]methyl]propanamide], 11 nM.
Turning to `CCN(CC(=O)NCc1cc(-c2ccc(C(F)(F)F)cc2)ncn1)S(=O)(=O)c1cc2cc(F)ccc2o1` [Example 419, 2-[ethyl-(5-fluorobenzofuran-2-yl)sulfonyl-amino]-N-[[6-[4-(trifluoromethyl)phenyl]pyrimidin-4-yl]methyl]acetamide], the concentration for half-maximal inhibition (IC50) at human TRPA1 [1] amounted to 4.1 nM.
Still for that read-out and setting: to `CC(C)N(CC(=O)NCc1cc(-c2ccc(C(F)(F)F)cc2)ncn1)S(=O)(=O)c1cc2cc(F)ccc2o1` [Example 420, 2-[(5-fluorobenzofuran-2-yl)sulfonyl-isopropyl-amino]-N-[[6-[4-(trifluoromethyl)phenyl]pyrimidin-4-yl]methyl]acetamide] belongs 10 nM; to `C[C@@H](C(=O)NCc1cc(-c2ccc(C(F)(F)F)cc2)ncn1)N(C)S(=O)(=O)c1cc2cc(F)ccc2o1` [Example 421, (2S)-2-[(5-fluorobenzofuran-2-yl)sulfonyl-methyl-amino]-N-[[6-[4-(trifluoromethyl)phenyl]pyrimidin-4-yl]methyl]propanamide], 2.9 nM; to `CCN([C@@H](C)C(=O)NCc1cc(-c2ccc(C(F)(F)F)cc2)ncn1)S(=O)(=O)c1cc2cc(F)ccc2o1` [Example 422, (2S)-2-[ethyl-(5-fluorobenzofuran-2-yl)sulfonyl-amino]-N-[[6-[4-(trifluoromethyl)phenyl]pyrimidin-4-yl]methyl]propanamide], 3 nM.
The same measure, in the same setting: to `O=C(CN(CC1CCNCC1)S(=O)(=O)c1cc2cc(F)ccc2o1)NCc1cc(-c2ccc(C(F)(F)F)cn2)ccn1` [Example 423, 2-[(5-fluorobenzofuran-2-yl)sulfonyl-(4-piperidylmethyl)amino]-N-[[4-[5-(trifluoromethyl)-2-pyridyl]-2-pyridyl]methyl]acetamide] belongs 33 nM; to `O=C(CN(CC1CCNCC1)S(=O)(=O)c1cc2cc(F)ccc2o1)NCc1cc(-c2ccc(C(F)(F)F)cc2)ncn1` [Example 424, 2-[(5-fluorobenzofuran-2-yl)sulfonyl-(4-piperidylmethyl)amino]-N-[[6-[4-(trifluoromethyl)phenyl]pyrimidin-4-yl]methyl]acetamide], 21 nM; to `C[C@@H](C(=O)NCc1cc(-c2ccc(C(F)(F)F)cn2)ccn1)N(C)S(=O)(=O)c1cc2cc(F)ccc2o1` [Example 426, (2S)-2-[(5-fluorobenzofuran-2-yl)sulfonyl-methyl-amino]-N-[[4-[5-(trifluoromethyl)-2-pyridyl]-2-pyridyl]methyl]propanamide], 7.7 nM.
As to `O=C(NCc1cc(-c2ccc(C(F)(F)F)cn2)ccn1)C(CF)NS(=O)(=O)c1cc2cc(F)ccc2o1` (centres unmarked) [Example 427, 3-fluoro-2-[(5-fluorobenzofuran-2-yl)sulfonylamino]-N-[[4-[5-(trifluoromethyl)-2-pyridyl]-2-pyridyl]methyl]propanamide], the IC50 on human TRPA1 [1] is 170 nM.
